Consider 1 compound from patent US20080188563A1, “BLOOD FLUIDITY IMPROVING AGENT” (KAO CORPORATION, priority 2002, published 2008).

Molecules are shown by their SMILES.

The subject of experiment [1] is stroke-prone spontaneously hypertensive rats (SHRSP/Izm, male). As to the kind of experiment: Evaluation of effects of improving cerebrovascular diseases: development of cerebral apoplexy, histopathological examination. Conditions: 50 mg/Kg/day oral, 49 days. In kind it is in vivo, rat. As for the experimental part:
Tests were started using stroke-prone spontaneously hypertensive rats (SHRSP/Izm, male) 6 weeks old after acclimating the rats I week or longer. The rats were all fed under the conditions of 20 to 26° C. temperature, 40 to 70% humidity and 12 hr. lighting time (from 6 a.m. to 6 p.m.). Rat was administered with samples of the preferred example of the present invention and samples of the comparative example once a day for continuous 49 days from a day when the rats reached 8 weeks of age. For administration, samples were orally administered by forced administration using a disposable polypropylene syringe attached with a metallic oral sonde. For the preferred example, each sample comprised a chlorogenic acid (supplied by Sigma Chemical Co., Ltd.) of 50 mg/Kg (body weight)/day, while the comparative example used the equal dose of injection grade water (supplied by Otsuka Pharmaceutical Co., Ltd., Tokyo, Japan) as samples. The preferred example also used the injection grade water as a medium for samples. For feeds, the rats were fed freely with a solid feed (CRF-1 supplied by Oriental Yeast Co., Ltd., Tokyo, Japan) for a period from the arrival to grouping of rats and with another solid feed (SP (a feed containing 0.4% common salt) supplied by the same manufacturer as above) for a period succeeding to the grouping. […]

For experiment [2] the test system is unchanged. Put plainly: Evaluation of blood fluidity: whole blood transit time through microchannel array (MC-FAN) after 28 days oral administration. In kind it is in vivo, rat. Conditions: 50 mg/Kg/day oral; for Transit time: 7 μm microchannels, 20 cm water column. As for the experimental part: Tests were started using stroke-prone spontaneously hypertensive rats (SHRSP/Izm, male) 6 weeks old after acclimating the rats 1 week or longer. The rats were all fed under the conditions of 20 to 26° C. temperature, 40 to 70% humidity and 12 hr. lighting time (from 6 a.m. to 6 p.m.).
The rats were administered with samples of the example of the present invention and samples of the comparative example once a day for continuous 28 days from a day when the rats reached 8 weeks of age. For administration, samples were orally administered by forced administration using a disposable polypropylene syringe attached with a metallic oral sonde. For the example, each sample contained a chlorogenic acid (supplied by Sigma Chemical Co., Ltd.) of 50 mg/Kg (body weight)/day, while the comparative example used the equal dose of injection grade water (supplied by Otsuka Pharmaceutical Co., Ltd., Tokyo, Japan) as samples. The preferred example also used the injection grade water as a medium for samples.
For feeds, the rats had been fed freely with a solid feed (CRF-1 supplied by Oriental Yeast Co., Ltd., Tokyo, Japan) for a period from the arrival to grouping of rats and with another solid feed (SP (a feed containing 0.4% common salt) supplied by the same manufacturer as above) for a period succeeding to the grouping. For drinking water, tap water was used in the period from the receipt to grouping of rats and 1% brine in the period after the grouping, respectively, for free uptake.
After administering rats with a specified sample for 28 continuous days, blood was sampled from each rat using a VENOJECT II vacuum blood collection tube of 7 mL size (available from Terumo Corporation, Tokyo, Japan) preinfused with 350 μL heparin as an anticoagulant (equivalent to 5% of whole blood). Upon sampling, the blood was agitated quickly to obtain blood samples for measurement. For blood measurement, a cellular microrheological measurement system was used (MC-FAN available from Hitachi Haramachi Electronics Co., Ltd., Ibaragi, Japan). The system incorporates an array of microchannels as a model of blood capillaries to measure the flowing characteristics of blood cells under constant differential pressure. As the model of blood capillaries, a silicon monocrystal basal plate having microchannels of 7 μm in width was used.
First, the time was measured for a 100 μL physiological saline solution to pass through the blood capillary model under differential pressure of 20 cm water column (the measured value to be used later for correction). Then the time was measured (in sec.) for a 100 μL each blood sample to pass through the blood capillary model under the same conditions. The time was measured every 10 μL fraction of sample flow. Each blood sample was microscopically observed as it flowed through the blood capillary model.

Turning to `O=C(/C=C/c1ccc(O)c(O)c1)O[C@@H]1C[C@](O)(C(=O)O)C[C@@H](O)[C@H]1O` [Preferred example, chlorogenic acid], the “Development of cerebral apoplexy versus comparative example (injection grade water), in words” value in experiment [1] was “definitely suppressed development of cerebral apoplexy”. For the same compound, the “Cerebral apoplexy developed (number of rats)” value in experiment [1] (of 10 rats used) turned out to be 3. For the same compound, the “Transit times versus comparative example (injection grade water), in words” value in experiment [2] is listed as “shorter transit times”. In addition, the Transit time in experiment [2] (blood volume passed 10 μL) came to 4.87 s; in experiment [2] (blood volume passed 20 μL), 9.67 s; in experiment [2] (blood volume passed 30 μL) it was 14.31 s; in experiment [2] (blood volume passed 40 μL), 19.34 s; in experiment [2] (blood volume passed 50 μL) it was 24.59 s; in experiment [2] (blood volume passed 60 μL) it was 30.03 s. The Transit time came to 35.90 s in experiment [2] (blood volume passed 70 μL), 41.65 s in experiment [2] (blood volume passed 80 μL), 47.58 s in experiment [2] (blood volume passed 90 μL) and 53.38 s in experiment [2] (blood volume passed 100 μL).
